Experiments:
ROCK2 [1] = target: T1, ROCK2 (Homo sapiens (Human), UniProt O75116); assay: ROCK2 ADP-Glo kinase enzyme inhibition assay; assay type: biochemical; details: Exp #3; read-out: ROCK2 IC50(Exp #3)
Procedure: (§1) We measured ROCK and PKA kinase enzyme activity inhibition by compounds using commercially available ROCK1 (Promega Corporation, cat #V9581), ROCK2 (Promega, cat #V4045), and PKA kinase (Promega, cat #V4247) ADP-Glo™ assay kits. ADP-Glo™ Kinase Assay is a luminescent ADP detection assay that provides a homogeneous method to measure kinase activity by quantifying the amount of ADP produced during a kinase reaction. The assay is performed in two steps. First, after the kinase reaction, an equal volume of ADP-Glo™ Reagent is added to terminate the kinase reaction and deplete the remaining ATP. Second, the Kinase Detection Reagent is added to simultaneously convert ADP to ATP and allow the newly synthesized ATP to be measured using a luciferase/luciferin reaction. The light generated is measured using a luminometer. A complete protocol is included with the kits and is also available at the Promega website. The assay is briefly described below. • 1. Diluted enzyme, substrate, ATP, and compounds (inhibitors) in Kinase Buffer (40 mM Tris, 7.5, 20 mM MgCl2, 0.1 mg/ml BSA, 50 μM DTT). • 2. Added 1 μl of inhibitor, 2 μl of enzyme and 2 μl of substrate/ATP mix to the wells of 384-well low volume nonbinding assay plate A series of three-fold dilution of inhibitor was prepared and assayed for each inhibitor. • 3. Incubated at room temperature for 60 minutes. • 4. Added 5 μl of ADP-Glo™ Reagent. • 5. Incubated at room temperature for 60 minutes. • 6. Added 10 μl of Kinase Detection Reagent • 7. Incubated at room temperature for 30 minutes.
(§2) Recorded luminescence (Integration time 1 second) using a plate-based luminometer.
(§3) Calculated Percent Enzyme Activity: First subtract the signal of the negative control (no enzyme and no inhibitor) from each sample's signal. Then use the mean relative light units (RLU) values for the 0% kinase activity (neither inhibitor nor enzyme) and the 100% kinase activity (no compound) to calculate the other percent enzyme activities remaining in the presence of the different dilutions of inhibitor.
Inhibitor stock solutions of 10 mM are made in DMSO and stored at −20° C. Dilutions were made in assay buffer immediately before use.

[2] = target: PKA-NanoLuc fusion protein (Homo sapiens (Human), UniProt P17612); assay: PKA-NanoBRET Target Engagement Intracellular Kinase Assay in HEK293 cells; assay type: cell-based; details: live HEK293 cells, 2 hours; read-out: Estimated IC50, inhibition of NanoBRET tracer binding to PKA
Procedure: NanoBRET™ TE assay is based on the NanoBRET™ System, an energy transfer technique designed to measure molecular proximity in living cells. The NanoBRET™ TE assay measures the apparent affinity of test compounds by competitive displacement of the NanoBRET™ tracer, reversibly bound to a NanoLuc® luciferase-kinase fusions in cells. Using the NanoBRET™ TE Kinase Assay, a fixed concentration of tracer is added to cells expressing the desired NanoLuc® kinase fusion to generate a BRET signal. […] Centrifuged culture, resuspended cells in fresh culture media, and dispense 85 ul in to wells of 96-well plate. • 3. […] Added 10 μl of 10× serially diluted inhibitor compound per well containing cells with IX NanoBRET Tracer Reagent. Thoroughly mixed plate on an orbital shaker for 15 seconds at 700 rpm. • 5. […] Equilibrated plate to room temperature for ˜15 minutes. • 6. […] Measured donor emission wavelength (450 nm) and acceptor emission wavelength (610 nm) using the GloMax® Discover System (Promega). To generate raw BRET ratio values, divided the acceptor emission value (610 nm) by the donor emission value (450 nm) for each sample.

ROCK1 = ROCK1 (Homo sapiens (Human), UniProt Q13464); assay: ROCK1 ADP-Glo kinase enzyme inhibition assay; assay type: biochemical; details: read-out: ROCK1 IC50
Sequence of ROCK1 (Q13464 whole entry): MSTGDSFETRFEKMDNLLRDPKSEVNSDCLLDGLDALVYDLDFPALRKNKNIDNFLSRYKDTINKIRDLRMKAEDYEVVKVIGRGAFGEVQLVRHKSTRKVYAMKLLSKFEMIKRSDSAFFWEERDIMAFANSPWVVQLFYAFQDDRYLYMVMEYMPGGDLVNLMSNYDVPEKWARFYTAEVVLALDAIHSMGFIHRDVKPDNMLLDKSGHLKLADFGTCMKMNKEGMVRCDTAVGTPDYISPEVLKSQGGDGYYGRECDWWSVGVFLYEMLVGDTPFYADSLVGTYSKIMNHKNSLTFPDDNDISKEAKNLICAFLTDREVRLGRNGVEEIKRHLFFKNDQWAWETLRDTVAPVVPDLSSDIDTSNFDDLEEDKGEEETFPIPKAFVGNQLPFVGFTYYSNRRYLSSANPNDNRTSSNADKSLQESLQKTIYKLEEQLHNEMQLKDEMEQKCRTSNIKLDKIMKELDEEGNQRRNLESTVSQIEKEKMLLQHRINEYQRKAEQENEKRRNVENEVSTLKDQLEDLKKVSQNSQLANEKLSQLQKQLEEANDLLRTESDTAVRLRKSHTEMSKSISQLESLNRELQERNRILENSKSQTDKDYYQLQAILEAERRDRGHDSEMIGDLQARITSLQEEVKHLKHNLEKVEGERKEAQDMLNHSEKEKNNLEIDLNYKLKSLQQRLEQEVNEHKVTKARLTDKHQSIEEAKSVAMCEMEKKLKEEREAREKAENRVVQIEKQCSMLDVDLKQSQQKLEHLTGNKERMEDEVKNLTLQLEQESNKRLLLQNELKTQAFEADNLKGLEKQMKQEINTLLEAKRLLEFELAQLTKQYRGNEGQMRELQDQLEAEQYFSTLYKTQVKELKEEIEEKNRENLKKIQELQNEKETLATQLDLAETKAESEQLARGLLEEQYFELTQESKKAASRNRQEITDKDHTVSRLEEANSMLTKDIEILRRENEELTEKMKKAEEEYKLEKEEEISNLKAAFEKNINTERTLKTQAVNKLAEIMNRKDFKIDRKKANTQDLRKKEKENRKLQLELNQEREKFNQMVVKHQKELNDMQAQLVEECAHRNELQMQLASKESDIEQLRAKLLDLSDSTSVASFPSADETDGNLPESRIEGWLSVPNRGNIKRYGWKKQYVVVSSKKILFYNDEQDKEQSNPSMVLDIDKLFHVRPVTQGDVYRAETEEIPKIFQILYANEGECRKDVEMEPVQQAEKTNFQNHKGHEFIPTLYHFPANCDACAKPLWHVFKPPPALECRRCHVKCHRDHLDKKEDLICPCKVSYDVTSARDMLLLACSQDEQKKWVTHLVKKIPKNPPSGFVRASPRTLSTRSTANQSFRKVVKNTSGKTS
Procedure: as §1, §2
as §3, with “inhibitor. […]” for “inhibitor.”

ROCK2 [3] = target: T1, ROCK2; assay: Stability in varied buffers and temperatures, measured by ROCK2 inhibition; assay type: physicochemical
Procedure: Stability in Varied Buffers and Temperatures. […] (room temperature), 37° C., 4° C., and −20° C. in water, 150 mM NaCl, pH 5 and 6 buffers, or buffers containing 150 mM NaCl. No visible precipitates were observed after storage.

[4] = Stability in liver microsomes (LC-MS/MS); assay type: in vitro ADME; details: Human liver microsomes; for % Remaining of Initial (n = 1): 1 μM
Procedure: Stability in liver microsomes. Experiment was conducted by Absorption Systems. Mixed-gender human liver microsomes (Lot #1210347) were purchased from XenoTech. The reaction mixture, minus NADPH, was prepared (Liver Microsomes 0.5 mg/mL, NADPH (cofactor) 1 mM, potassium phosphate, pH 7.4, 100 mM, MgCl2, 5 mM). The test article was added into the reaction mixture at a final concentration of 1 μM. The control compound, testosterone, was run simultaneously with the test article in a separate reaction. The reaction mixture (without cofactor) was equilibrated in a shaking water bath at 37° C. for 3 minutes. The reaction was initiated by the addition of the cofactor, and the mixture was incubated in a shaking water bath at 37° C. Aliquots (100 μL) were withdrawn at 0, 10, 20, 30, and 60 minutes. Test article and testosterone samples were immediately combined with 400 μL of ice-cold 50/50 acetonitrile (ACN)/H2O containing 0.1% formic acid and internal standard to terminate the reaction. The samples were then mixed and centrifuged to precipitate proteins. […] The peak area response ratio (PARR) to internal standard was compared to the PARR at time 0 to determine the percent remaining at each time point. Half-lives and clearance were calculated using GraphPad software, fitting to a single-phase exponential decay equation.

T1 sequence (O75116 whole entry): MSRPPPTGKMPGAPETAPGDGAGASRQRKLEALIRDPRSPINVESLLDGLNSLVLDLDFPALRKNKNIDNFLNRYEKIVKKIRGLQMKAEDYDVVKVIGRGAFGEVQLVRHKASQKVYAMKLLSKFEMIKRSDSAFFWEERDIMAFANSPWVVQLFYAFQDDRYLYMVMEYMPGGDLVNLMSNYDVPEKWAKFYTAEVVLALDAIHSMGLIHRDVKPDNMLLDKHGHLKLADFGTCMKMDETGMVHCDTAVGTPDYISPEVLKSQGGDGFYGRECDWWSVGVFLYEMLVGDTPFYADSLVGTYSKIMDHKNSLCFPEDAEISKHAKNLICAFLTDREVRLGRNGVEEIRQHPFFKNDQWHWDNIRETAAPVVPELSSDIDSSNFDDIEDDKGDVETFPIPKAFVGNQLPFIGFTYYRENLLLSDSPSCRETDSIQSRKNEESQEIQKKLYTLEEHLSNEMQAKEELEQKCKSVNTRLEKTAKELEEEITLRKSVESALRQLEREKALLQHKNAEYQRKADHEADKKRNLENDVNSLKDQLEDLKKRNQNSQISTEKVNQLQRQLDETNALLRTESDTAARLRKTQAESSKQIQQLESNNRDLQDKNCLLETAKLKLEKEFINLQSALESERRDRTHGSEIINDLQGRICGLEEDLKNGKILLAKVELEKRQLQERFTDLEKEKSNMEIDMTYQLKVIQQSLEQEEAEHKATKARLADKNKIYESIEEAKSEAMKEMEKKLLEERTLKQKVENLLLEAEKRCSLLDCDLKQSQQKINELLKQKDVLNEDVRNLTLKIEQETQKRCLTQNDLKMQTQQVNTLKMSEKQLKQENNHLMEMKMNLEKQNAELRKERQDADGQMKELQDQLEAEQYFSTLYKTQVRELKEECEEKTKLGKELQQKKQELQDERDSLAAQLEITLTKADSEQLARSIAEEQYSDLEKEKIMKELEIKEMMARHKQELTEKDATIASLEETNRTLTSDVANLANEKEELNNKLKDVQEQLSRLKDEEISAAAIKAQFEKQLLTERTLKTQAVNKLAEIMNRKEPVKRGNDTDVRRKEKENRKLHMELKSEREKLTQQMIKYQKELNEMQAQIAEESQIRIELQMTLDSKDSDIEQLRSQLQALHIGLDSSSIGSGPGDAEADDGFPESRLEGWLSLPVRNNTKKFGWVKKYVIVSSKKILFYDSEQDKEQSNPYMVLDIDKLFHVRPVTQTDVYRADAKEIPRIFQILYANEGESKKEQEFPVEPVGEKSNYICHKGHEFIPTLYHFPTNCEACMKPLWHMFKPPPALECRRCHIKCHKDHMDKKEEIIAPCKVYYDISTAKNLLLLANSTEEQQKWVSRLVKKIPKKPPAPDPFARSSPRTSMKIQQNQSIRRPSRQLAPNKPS

Cl.Cl.NCC(C(=O)Nc1ccc2cnccc2c1)c1ccc(B(O)O)cc1 (centres unmarked) [Compound 10•2HCl]
IC50 (ROCK2 [1]): 28 nM | IC50 [2]: 1420 nM | IC50 (ROCK1): 54 nM | % ROCK2 inhibition at 20 nM (ROCK2 [3]; 25 mM Borate pH 5 (0.5 mg/ml), 15 days at 23° C.): 31% | % ROCK2 inhibition at 20 nM (ROCK2 [3]; 25 mM Borate, pH 5 (0.5 mg/ml), 15 days at −20° C.): 32% | % ROCK2 inhibition at 20 nM (ROCK2 [3]; 25 mM Borate, pH 5, 150 mM NaCl (0.5 mg/ml), 15 days at 23° C.): 29% | % ROCK2 inhibition at 20 nM (ROCK2 [3]; 150 mM NaCl (0.5 mg/ml), 0 days at 23° C.): 35% | % ROCK2 inhibition at 20 nM (ROCK2 [3]; 150 mM NaCl (0.5 mg/ml), 15 days at 23° C.): 35% | % ROCK2 inhibition at 20 nM (ROCK2 [3]; 150 mM NaCl (2 mg/ml), 120 days at 4° C.): 31% | % ROCK2 inhibition at 20 nM (ROCK2 [3]; 150 mM NaCl (2 mg/ml), 120 days at 37° C.): 35% | Stability in solution (ROCK2 [3]; 150 mM NaCl, 37° C. and 4° C.): stable for 4 months | % ROCK2 inhibition at 20 nM (ROCK2 [3]; Water (0.5 mg/ml), 15 days at 23° C.): 34% | % ROCK2 inhibition at 20 nM (ROCK2 [3]; Water (0.5 mg/ml), 15 days at −20° C.): 33% | % Remaining of Initial (n = 1) ([4]; 0 min): 100% | % Remaining of Initial (n = 1) ([4]; 10 min): 98.0% | % Remaining of Initial (n = 1) ([4]; 20 min): 91.5% | % Remaining of Initial (n = 1) ([4]; 30 min): 89.6% | % Remaining of Initial (n = 1) ([4]; 60 min): 80.8% | half-life at 1 μM ([4]; both sexes, pH 7.4): > 1 h | microsomal CLint at 1 μM ([4]; both sexes, pH 7.4): < 23.1 µL/min/mg

Source: patent US12479866B2, “Boron-containing rho kinase inhibitors” (Percipiad, Inc., priority 2019, dated 2025)
